The text below walks through data of patent US20070134391A1, “High-Potency Sweetener Composition for Treatment and/or Prevention of Autoimmune Disorders and Compositions Sweetened Therewith” (THE COCA-COLA COMPANY, priority 2005, published 2007).

Data set [1] is described as follows: Rate of dissolution of rebaudioside A polymorph and amorphous forms in H2O. It counts as physicochemical.
Data set [2] has as its system panel of experts in the sensory evaluation of foods and beverages. The data set is described as follows: Sensory evaluation of sweetness linger and sugar-like taste by expert panel. Conditions: scale 0=no sweetness linger to 5=high sweetness linger. The data set is classed as in vivo. On the procedure:
Sensory evaluation of the samples prepared in Example Set G was carried out under the following protocol, similar to that described hereinabove. In this test protocol, none of the samples were swallowed. All samples were expectorated and the mouth was rinsed with water after the tasting. Immediately upon sensing maximal sweetness, the sample was expectorated, the mouth was rinsed with water and the rate of sweetness decay (“Sweetness Linger”) was measured, where attention was focused on the sweetness 3-4 min after the water rinse. After sample tasting was complete, a salty oyster cracker was chewed followed by a water rinse, and at least 5 minutes followed before tasting the next sample. The sweetness linger was rated by a panel of experts in the sensory evaluation of foods and beverages using the following scale: 0=no sweetness linger, 1=very slight sweetness linger, 2=slight sweetness linger, 3=moderate sweetness linger, 4=moderately high sweetness linger, 5=high sweetness linger.
The “Sweetness Linger” rating for sucrose observed by this protocol is defined as 0. The Sweetness Linger of a 500 ppm of REBA control sample is defined as 5. Experimental samples were tasted by the same protocol, always allowing sufficient time between samples to ensure re-equilibration of the sensory system. Re-tasting of control samples during the course of the experiment was allowed and encouraged.
The comparison taste test was performed between two controls and addition of sweet taste improving additive on the onset and/or sweetness linger.
Sweet taste improving compositions were combined with a REBA solution to determine their effect on sweetness linger. Screening of the initial sample, or further dilutions, allowed identification of concentrations which were just above-threshold, herein defined as “near-threshold concentrations.” The near-threshold additive concentrations, a 6- to 100-fold higher higher additive concentration (depending on the off-taste intensity), and a mid-level additive concentration (halfway between the near-threshold and higher additive concentration) were evaluated to determine the effect on sweetness linger of a REBA solution.
Formulations of a 500 ppm EBA in a phosphoric acid solution (75%) at a pH of 2.5 with phosphoric acid or a pH of 3.1 with citric acid and potassium citrate were prepared prior to the addition of the additives at the three levels of concentration.
Sensory evaluation using the protocol described in Example Set G then was used to evaluate the sweetness linger of the REBA solutions.

Where [3] appears, read: Example Set G: citric acid/potassium citrate composition equivalent to diet lemon-lime beverage, 3-4 min after water rinse.
[4] abbreviates: Example Set H: carbon-treated water with phosphoric acid (75%) to pH 2.4-2.5.

On to rebaudioside A [Form 1], for which the “Rate of dissolution in H2O at 25° C.” value in data set [1] is “Very low (<0.2%/ %/60 minutes”.

Consider `OC[C@H]1O[C@@](CO)(O[C@H]2O[C@H](CO)[C@@H](O)[C@H](O)[C@H]2O)[C@@H](O)[C@@H]1O` [sugar, sucrose], for which the sweetness linger in data set [2] (setting [3]) and in data set [2] (setting [4]) was 0 throughout.

As for rebaudioside A, the sweetness linger in data set [2] (setting [3]) and in data set [2] (setting [4]) was 5 each time.
